One data set has as its system Mus musculus. Briefly: Reduction in active wake sleep in mouse at 100 mg/kg, po after 2 hrs. It is filed as functional, organism-based. On the set-up: dose 100 mg/kg.
The target of the next data set is Cytochrome P450 2D6 (Homo sapiens, UniProt P10635). In words: Reversible inhibition of CYP2D6 (unknown origin). Format: ADME.
The species entered for another data set is Rattus norvegicus. In words: Ex vivo receptor occupancy at human OX2R expressed in transgenic rat at CSF concentration of 40 nM. Format: functional.
Data set [1] in a line: Tmax in dog at 3 mg/kg, po. It is filed as ADME, organism-based, Canis lupus familiaris. More on the design: dose 3 mg/kg, route oral. As to conditions: in vivo.

The values that follow come from ChEMBL document CHEMBL3352684, “Discovery of MK-3697: a selective orexin 2 receptor antagonist (2-SORA) for the treatment of insomnia” (Bioorg Med Chem Lett, 2014).

Calls of active or inactive are those of the source. The calls are words filed in the database; no cut-off is given here.

Cytochrome P450 2D6, sequence (P10635 whole entry): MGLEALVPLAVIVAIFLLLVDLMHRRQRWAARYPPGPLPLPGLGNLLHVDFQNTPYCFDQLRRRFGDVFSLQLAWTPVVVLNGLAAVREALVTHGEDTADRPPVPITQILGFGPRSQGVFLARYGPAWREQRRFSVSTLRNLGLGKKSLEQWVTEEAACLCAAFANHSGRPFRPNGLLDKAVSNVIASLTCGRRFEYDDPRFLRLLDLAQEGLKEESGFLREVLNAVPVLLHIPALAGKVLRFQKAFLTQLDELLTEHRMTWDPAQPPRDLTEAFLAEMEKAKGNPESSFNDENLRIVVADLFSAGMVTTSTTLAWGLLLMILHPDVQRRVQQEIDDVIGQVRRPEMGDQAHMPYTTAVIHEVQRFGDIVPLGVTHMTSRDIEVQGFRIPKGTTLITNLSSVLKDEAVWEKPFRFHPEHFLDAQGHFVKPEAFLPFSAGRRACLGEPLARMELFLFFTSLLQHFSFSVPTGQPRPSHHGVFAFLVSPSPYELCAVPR

The term IC50 denotes the concentration needed to halve the response being measured. A higher IC50 goes with weaker potency. By Tmax is commonly meant the time at which the peak concentration occurs. Take `COc1ccc(CNC(=O)c2cc(-c3cncc(C)c3)ncc2-c2nccs2)nc1OC`: the result in the data set on Mus musculus was Active. At Cytochrome P450 2D6, this compound had an IC50 above 50 µM. In the data set filed under Rattus norvegicus, the Occ is 90%. In data set [1], the Tmax was 1 h.
